Reference: article PMC10059999, “Assessment of Lipophilicity Parameters of Antimicrobial and Immunosuppressive Compounds” (Molecules, 2023)
≈ marks a conversion by molar mass, not a printed value. Read-outs that look alike come from different tables or passages of the source.

Legend:
[1] = design: method as in DrugBank; conditions: n-octanol-water, ref DrugBank, cited from earlier work
[2] = RP-TLC determination of chromatographic lipophilicity parameter RMW (Soczewiński–Wachtmeister extrapolation to pure water); format: physicochemical; conditions: for RMW values, range: range over all plates (RP2F254, RP18F254, RP18WF254) and all mobile phases
Experimental: Thin-layer chromatography aluminum plates (20 cm × 20 cm, 0.25 mm) precoated with silica gel RP18F254, and glass plates coated with silica gel RP18WF254 (20 cm × 10 cm) and silica gel RP2F254 (10 cm × 10 cm) were obtained from Merck (Darmstadt, Germany).
The chromatographic analysis was carried out according to the procedure described earlier on RP-TLC plates (RP2F254, RP18F254, RP18WF254) as a stationary phase using three different mobile phases. Five microliters of standard solutions of analytes were spotted onto the chromatographic plates. The chromatographic chamber 20 cm × 10 cm (Camag, Switzerland) was saturated with the mobile phase vapors for 20 min. The mobile phases were prepared by mixing appropriate organic modifiers (ethanol, propan-2-ol, acetonitrile) and water in different volume compositions. The content of the organic modifier in the mobile phase used was changed in the step of 5% (v/v) in the range of 30–90% v/v. Thus, the mobile phases used consisted of a suitable organic solvent and water mixed in the following volume compositions: 30:70; 35:65; 40:60; 45:55; 50:50; […]; 60:40; 65:35; 70:30; 75:25; 80:20; 85:15 and 90:10. Chromatograms were developed at room temperature (21 ± 1 °C) to the solvent distance of 7 cm. Next, the chromatograms were dried for 24 h at (21 ± 1 °C) in a fume cupboard. The detection of the studied compounds was carried out under a UV lamp at 254 nm (Camag, Muttenz, Switzerland). The values of Rf (retardation factor) are the average values of three independent measurements in each case.

[3] = design: method as in ChemSpider / selleckchem.com; conditions: ref ChemSpider / selleckchem.com, cited from earlier work; for Solubility in Water / logS: aqueous solubility
[4] = RP2F254 plates, acetonitrile-water mobile phase
[5] = RP2F254 plates, ethanol–water mobile phase
[6] = RP2F254 plates, propan-2-ol-water mobile phase
[7] = RP18F254 plates, acetonitrile-water mobile phase
[8] = RP18F254 plates, ethanol–water mobile phase
[9] = RP18F254 plates, propan-2-ol-water mobile phase
[10] = RP18WF254 plates, acetonitrile-water mobile phase
[11] = RP18WF254 plates, ethanol–water mobile phase
[12] = RP18WF254 plates, propan-2-ol-water mobile phase

SMILES	logPexp (Experimental Value) [1]	logPexp (Experimental Value) ([1]; listed as ceftazidime)	RMW [2, 4]	RMW [2, 5]	RMW [2, 6]	RMW values, range on RP2F254 ([2]; RP2F254 plates, range over the three mobile phases)	RMW [2, 7]	RMW [2, 8]	RMW [2, 9]	RMW [2, 10]	RMW [2, 11]	RMW [2, 12]	RMW values, range [2]	Solubility in Water [3] [µg/mL]	logS [3]	pKa (Strongest Acidic) [3]	pKa (Strongest Basic) [3]
CC(C)(O/N=C(\C(=O)N[C@@H]1C(=O)N2C(C(=O)[O-])=C(C[n+]3ccccc3)CS[C@H]12)c1csc(N)n1)C(=O)O [Ceftazidime, ceftazidime]	−1.60	−1.6	−0.0357	−0.6643	−0.3642	−0.0357 to −0.6643	0.1462	−2.9545	0.4691	0.4121	0.4152	0.9153	−2.9545 to 0.9153	5.73 (≈ 10.5 µM)	−5.0	2.42	4.02
Nc1nc(-n2cc(C(=O)O)c(=O)c3cc(F)c(N4CC(O)C4)c(Cl)c32)c(F)cc1F [Delafloxacin, delafloxacin]			0.6615	0.9184	0.7390		2.3174	2.1359	1.7719	1.8351	1.9694	1.6940		69.9 (≈ 159 µM)	−3.8	5.62	−1.3
CO[C@H]1C[C@@H]2CC[C@@H](C)[C@@](O)(O2)C(=O)C(=O)N2CCCC[C@H]2C(=O)O[C@H]([C@H](C)C[C@@H]2CC[C@@H](OCCO)[C@H](OC)C2)CC(=O)[C@H](C)/C=C(\C)[C@@H](O)[C@@H](OC)C(=O)[C@H](C)C[C@H](C)/C=C/C=C/C=C/1C [Everolimus, everolimus]			2.8557	2.9460	2.2145		2.9462	3.5637	2.5865	2.7737	2.8227	2.5687	2.2145–3.5637	1.63 (≈ 1.7 µM)	−5.8	9.96	−2.7
CC(=O)NC[C@H]1CN(c2ccc(N3CCSCC3)c(F)c2)C(=O)O1 [Sutezolid, sutezolid]			1.4312	1.4334	1.1590		2.2114	1.8680	1.5937	2.0329	1.9661	1.4784		237 (≈ 671 µM)	−3.2	14.85	−0.14
CO[C@H]1C[C@@H]2CC[C@@H](C)[C@@](O)(O2)C(=O)C(=O)N2CCCC[C@H]2C(=O)O[C@H]([C@H](C)C[C@@H]2CC[C@H](n3cnnn3)[C@H](OC)C2)CC(=O)[C@H](C)/C=C(\C)[C@@H](O)[C@@H](OC)C(=O)[C@H](C)C[C@H](C)/C=C/C=C/C=C/1C [Zotarolimus, zotarolimus]			2.7480	3.3623	2.1522		3.1252	3.1105	2.4741	3.2300	2.7377	2.7821	2.1522–3.3623				
